# Measured values published in ChEMBL document CHEMBL1201862, “PubChem BioAssay data set” (2004).
#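 Values below derive from 48-hour exposures of cells grown in 96-well plates, with endpoints linearly interpolated between the two concentrations bracketing the appropriate inhibition level. GI50 = concentration required for 50% inhibition of growth.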 Activity calls are given as the source filed them. Rule as the data show it: active = GI50 up to about 1.1 µM and inactive = higher.
# What was measured:
# Experiment in all cases: DTP human tumour cell line panel, 48 h
# [1] = system: MOLT-4
# [2] = system: OVCAR-3
# [3] = system: OVCAR-4
# [4] = system: A549
# [5] = system: COLO 205
# [6] = system: RXF 393
# [7] = system: M14
# [8] = system: HOP-92
# [9] = system: IGROV-1
# [10] = system: UO-31
# [11] = system: ACHN
# [12] = system: SK-OV-3
# [13] = system: HCT-15
# [14] = system: Malme-3M
# [15] = system: CCRF-CEM
# [16] = system: CAKI-1
# [17] = system: HCT-116
SMILES,GI50 [1],GI50 [2],GI50 [3],GI50 [4],GI50 [5],GI50 [6],GI50 [7],GI50 [8],GI50 [9],GI50 [10],GI50 [11],GI50 [12],GI50 [13] [µM],GI50 [14],GI50 [15],GI50 [16],GI50 [17]
CC1/C=C/[C@@]2(C)CCC(C(C)(C)O)C2C(O)C[C@](C)(O)/C=C/C1 (some centres not stated),> 100 µM (inactive),> 100 µM (inactive),> 100 µM (inactive),> 100 µM (inactive),> 100 µM (inactive),> 100 µM (inactive),> 100 µM (inactive),> 100 µM (inactive),> 100 µM (inactive),> 100 µM (inactive),> 100 µM (inactive),> 100 µM (inactive),> 100,> 100 µM (inactive),> 100 µM (inactive),> 100 µM (inactive),> 100 µM (inactive)
CCOC(=O)C1C(=O)c2cccc(OC)c2C2COC(=O)N12 (configuration not stated),> 100 µM (inactive),> 100 µM (inactive),> 100 µM (inactive),> 100 µM (inactive),> 100 µM (inactive),> 100 µM (inactive),> 100 µM (inactive),> 100 µM (inactive),> 100 µM (inactive),> 100 µM (inactive),> 100 µM (inactive),> 100 µM (inactive),> 100,> 100 µM (inactive),> 100 µM (inactive),,> 100 µM (inactive)
Cc1ccc(NC(=O)C(=O)C(C(=O)/C=C/c2ccccc2)C2OC(=O)c3ccccc32)c(C)c1 (configuration not stated),77.4 µM (inactive),> 100 µM (inactive),> 100 µM (inactive),> 100 µM (inactive),> 100 µM (inactive),> 100 µM (inactive),> 100 µM (inactive),> 100 µM (inactive),> 100 µM (inactive),> 100 µM (inactive),> 100 µM (inactive),> 100 µM (inactive),> 100,> 100 µM (inactive),> 100 µM (inactive),> 100 µM (inactive),> 100 µM (inactive)
COc1ccc2oc(-c3ccc(OC)c(OC)c3OC)cc(=O)c2c1,,34.7 µM (inactive),38.7 µM (inactive),36.6 µM (inactive),52 µM (inactive),22.4 µM (inactive),55.3 µM (inactive),50.6 µM (inactive),83.9 µM (inactive),,61.8 µM (inactive),> 100 µM (inactive),,40.7 µM (inactive),35.2 µM (inactive),53 µM (inactive),34.6 µM (inactive)
CCOc1ccccc1NC(=O)C(=O)C(C(=O)c1ccc2ccccc2c1)C1OC(=O)c2ccccc21 (configuration not stated),3.37 µM (inactive),12.7 µM (inactive),4.61 µM (inactive),21.4 µM (inactive),14.8 µM (inactive),2.26 µM (inactive),15.9 µM (inactive),10.5 µM (inactive),13 µM (inactive),12.7 µM (inactive),29.2 µM (inactive),15.4 µM (inactive),14.2,14.3 µM (inactive),8.22 µM (inactive),10.4 µM (inactive),9.2 µM (inactive)
COc1ccc2c(c1)C1C(CO2)C(c2ccccc2)=NN1c1ccccc1 (configuration not stated),94.8 µM (inactive),> 100 µM (inactive),,> 100 µM (inactive),> 100 µM (inactive),35.6 µM (inactive),,> 100 µM (inactive),> 100 µM (inactive),> 100 µM (inactive),> 100 µM (inactive),> 100 µM (inactive),,> 100 µM (inactive),> 100 µM (inactive),,> 100 µM (inactive)
CC1=CCN(c2ccccn2)OC1c1ccccc1 (configuration not stated),> 100 µM (inactive),> 100 µM (inactive),> 100 µM (inactive),> 100 µM (inactive),> 100 µM (inactive),62.8 µM (inactive),> 100 µM (inactive),,> 100 µM (inactive),59.8 µM (inactive),> 100 µM (inactive),> 100 µM (inactive),> 100,> 100 µM (inactive),> 100 µM (inactive),> 100 µM (inactive),> 100 µM (inactive)
C=C(Br)C(C)(Br)CCC(Br)C(C)(C)Br (configuration not stated),24.3 µM (inactive),,39.4 µM (inactive),80.2 µM (inactive),19.3 µM (inactive),46.6 µM (inactive),23.7 µM (inactive),18.6 µM (inactive),19.7 µM (inactive),60.7 µM (inactive),57.7 µM (inactive),40.7 µM (inactive),34.8,28.1 µM (inactive),15 µM (inactive),> 100 µM (inactive),21.2 µM (inactive)
COc1ccccc1OCC(COC(=O)Nc1ccc(C)cc1)OC(=O)Nc1ccc(C)cc1 (configuration not stated),18.9 µM (inactive),17.3 µM (inactive),,57.1 µM (inactive),18.2 µM (inactive),7.19 µM (inactive),19.2 µM (inactive),7.59 µM (inactive),26 µM (inactive),17.2 µM (inactive),21.8 µM (inactive),24.7 µM (inactive),15.8,17.4 µM (inactive),18.2 µM (inactive),13.1 µM (inactive),17.5 µM (inactive)
C[N+](C)(C)CC(=O)N/N=C(/Cc1nc2ccc(Cl)cc2nc1O)C1=NS(=O)(=O)c2cc(S(N)(=O)=O)c(Cl)cc2N1,> 100 µM (inactive),> 100 µM (inactive),> 100 µM (inactive),> 100 µM (inactive),> 100 µM (inactive),> 100 µM (inactive),,,> 100 µM (inactive),> 100 µM (inactive),> 100 µM (inactive),> 100 µM (inactive),,> 100 µM (inactive),> 100 µM (inactive),,> 100 µM (inactive)
O=c1[nH]nc(-c2ccccc2)c(-c2ccccc2)c1-n1nc(-c2ccccc2)c2ccccc2c1=O,17 µM (inactive),51.5 µM (inactive),> 100 µM (inactive),83.4 µM (inactive),34.6 µM (inactive),,> 100 µM (inactive),75.5 µM (inactive),> 100 µM (inactive),71.8 µM (inactive),50.8 µM (inactive),> 100 µM (inactive),78,> 100 µM (inactive),27.9 µM (inactive),> 100 µM (inactive),83.9 µM (inactive)
O=C(Nc1nnc(S)[nH]1)C(=O)C1C(=O)Nc2ccccc2[S+]1[O-] (configuration not stated),> 100 µM (inactive),> 100 µM (inactive),> 100 µM (inactive),> 100 µM (inactive),> 100 µM (inactive),,> 100 µM (inactive),> 100 µM (inactive),> 100 µM (inactive),> 100 µM (inactive),> 100 µM (inactive),> 100 µM (inactive),> 100,> 100 µM (inactive),> 100 µM (inactive),> 100 µM (inactive),> 100 µM (inactive)
O=C1OC2C=CC1C1(CCOC1=O)C2 (configuration not stated),> 100 µM (inactive),> 100 µM (inactive),> 100 µM (inactive),> 100 µM (inactive),> 100 µM (inactive),,> 100 µM (inactive),> 100 µM (inactive),48.8 µM (inactive),> 100 µM (inactive),> 100 µM (inactive),,> 100,> 100 µM (inactive),> 100 µM (inactive),> 100 µM (inactive),> 100 µM (inactive)
c1ccc(SC(CCCCC(Sc2ccccc2)Sc2ccccc2)Sc2ccccc2)cc1,> 100 µM (inactive),> 100 µM (inactive),> 100 µM (inactive),> 100 µM (inactive),> 100 µM (inactive),> 100 µM (inactive),> 100 µM (inactive),> 100 µM (inactive),,> 100 µM (inactive),> 100 µM (inactive),> 100 µM (inactive),> 100,,> 100 µM (inactive),> 100 µM (inactive),> 100 µM (inactive)
N=C1SCCS1,> 100 µM (inactive),> 100 µM (inactive),> 100 µM (inactive),> 100 µM (inactive),> 100 µM (inactive),,> 100 µM (inactive),59 µM (inactive),> 100 µM (inactive),> 100 µM (inactive),> 100 µM (inactive),> 100 µM (inactive),> 100,> 100 µM (inactive),> 100 µM (inactive),> 100 µM (inactive),> 100 µM (inactive)
CO[C@@H]1C=C[C@@]23c4cc5c(cc4C(=O)O[C@H]2CN(C)[C@H]3C1)OCO5,> 100 µM (inactive),> 100 µM (inactive),> 100 µM (inactive),> 100 µM (inactive),> 100 µM (inactive),> 100 µM (inactive),> 100 µM (inactive),> 100 µM (inactive),> 100 µM (inactive),> 100 µM (inactive),> 100 µM (inactive),> 100 µM (inactive),,,> 100 µM (inactive),,> 100 µM (inactive)
O=C(N/N=C(/c1nc2ccc([N+](=O)[O-])cc2[nH]c1=O)C(O)c1ccc([N+](=O)[O-])cc1)c1ccncc1 (configuration not stated),> 100 µM (inactive),,> 100 µM (inactive),69 µM (inactive),> 100 µM (inactive),,45.9 µM (inactive),> 100 µM (inactive),> 100 µM (inactive),> 100 µM (inactive),39.7 µM (inactive),> 100 µM (inactive),23.1,> 100 µM (inactive),16.3 µM (inactive),42 µM (inactive),> 100 µM (inactive)
CCCCCCCCCCCCCC(=O)OCC1OC(OC)C(NC(=O)N(CCCl)N=O)C(O)C1O (configuration not stated),2.06 µM (inactive),24.9 µM (inactive),20.6 µM (inactive),15.6 µM (inactive),21.9 µM (inactive),16.4 µM (inactive),17.2 µM (inactive),,29.6 µM (inactive),22.6 µM (inactive),10.5 µM (inactive),,34.8,27 µM (inactive),10.3 µM (inactive),> 100 µM (inactive),14.3 µM (inactive)
